Columns and labels:
R419A norovirus RdRp = molecular target: T1, R419A norovirus RdRp (Norovirus GII.4 (Norwalk virus, human norovirus), UniProt K4L8Z7, R1608A); test: Fluorescent RdRp assay, R419A mutant RdRp; type: biochemical; conditions: 0.1–100 µM
T1 sequence (K4L8Z7 1190-1699 R1608A): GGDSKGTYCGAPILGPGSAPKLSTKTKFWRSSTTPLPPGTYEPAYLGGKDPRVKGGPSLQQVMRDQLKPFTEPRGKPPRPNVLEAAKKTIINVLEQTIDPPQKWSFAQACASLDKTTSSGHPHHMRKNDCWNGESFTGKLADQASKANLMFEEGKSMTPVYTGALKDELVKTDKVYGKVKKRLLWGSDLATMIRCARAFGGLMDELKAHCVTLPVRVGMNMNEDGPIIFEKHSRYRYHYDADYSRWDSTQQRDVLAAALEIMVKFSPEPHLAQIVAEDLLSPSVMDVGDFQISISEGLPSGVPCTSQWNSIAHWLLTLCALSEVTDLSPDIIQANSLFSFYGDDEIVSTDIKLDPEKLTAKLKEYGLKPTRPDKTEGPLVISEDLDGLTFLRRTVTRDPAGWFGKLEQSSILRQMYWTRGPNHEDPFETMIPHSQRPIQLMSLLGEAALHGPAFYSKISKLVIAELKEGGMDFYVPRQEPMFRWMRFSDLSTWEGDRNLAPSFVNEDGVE
Description: Given the evidence of 54 being a site-B binding NNI, residues Q414 and R419 were mutated to alanine. These residues were previously shown by our research group and others to be critical for human norovirus RdRp site-B binding NNIs, and can create resistance to the drug through their mutagenesis[16],[17],[39]. After the mutant RdRps’ transcriptional activity was confirmed in a fluorescent RdRp assay (Q414A: 54%, R419A: 34% of wild-type activity, respectively), dose-response curves for 54 (0.1–100 µM) were produced to compare the IC50 values between the wild-type RdRp and the two mutant RdRps, Q414A and R419A (Fig. 13B). […]
Fluorescent RdRp activity assays were carried out as previously described[14],[62]. Briefly, RdRp activity was quantified by monitoring the formation of double-stranded RNA (dsRNA) from a single stranded homopolymeric template, poly(C) (Sigma Aldrich, St Louis, MO, USA), using the fluorescent dye PicoGreen (Life Technologies, Carlsbad, CA, USA). […] RdRps were incubated for 10 mins at 30 °C in the presence of the test compounds or the compound vehicle DMSO (0.5% vol/vol) before addition into the reaction mixture, which was then allowed to run 15 min at 30 °C then terminated with 10 mM EDTA, followed by PicoGreen staining and dsRNA quantitation. […] Antagonism was calculated using Compusyn software V1.0[59]. […]

[1] = molecular target: T2, human norovirus Sydney 2012 RdRp (Norovirus GII.4 (Norwalk virus, human norovirus), UniProt K4L8Z7); test: Combinational study of 54 and PPNDS (Compusyn combination index); type: biochemical; conditions: 54 with PPNDS, 4:1 ratio
Experimental: Despite the minimal activity in the cell culture system, RdRp inhibition by 54 is an important finding in the search of novel norovirus inhibitors. […] PPNDS (0.025–25 µM) and 54 (0.1–100 µM) were examined alone and together in a 1:4 ratio respectively (Fig. 13A), and the average of the combination indices at 50% (1.6), 75% (1.7) and 90% (1.8) inhibition was 1.7.
(§1) Fluorescent RdRp activity assays were carried out as previously described[14],[62]. Briefly, RdRp activity was quantified by monitoring the formation of double-stranded RNA (dsRNA) from a single stranded homopolymeric template, poly(C) (Sigma Aldrich, St Louis, MO, USA), using the fluorescent dye PicoGreen (Life Technologies, Carlsbad, CA, USA). RdRp assays were performed in 384-well plates, and each reaction mixture contained 400 ng enzyme, 45 µM GTP, 10 ng/µL poly(C) RNA, 2.5 mM MnCl2, 5 mM dithiothreitol, (DTT), 0.01% bovine serum albumin (BSA), and 0.005% Tween 20 in 20 mM Tris-HCl, pH 7.5, with a final reaction volume of 25 µL. The previous published norovirus NNI NIC02 was used as a positive control. RdRps were incubated for 10 mins at 30 °C in the presence of the test compounds or the compound vehicle DMSO (0.5% vol/vol) before addition into the reaction mixture, which was then allowed to run 15 min at 30 °C then terminated with 10 mM EDTA, followed by PicoGreen staining and dsRNA quantitation. GraphPad Prism V6.05 (La Jolla, CA, USA) was used to plot the IC50 values. In cases where fluorescent enhancement was recorded for a compound instead of inhibition, a secondary gel-based polymerase activity assay was used as a counter-screen as described below, to exclude the possibility of RdRp activity enhancement (Supplementary Fig. S1). Primed elongation activity was examined in a gel-based assay as previously described[16],[63] using the RNA template (PE44-NoV, Fig. 4D). Gels were imaged using BioRad (Hercules, CA, U.SA) Geldoc Universal Hood II, running BioRad Image Lab software, V4.1, build 16. Antagonism was calculated using Compusyn software V1.0[59]. 54 and PPNDS (4:1 ratio) were tested alone and together against norovirus Sydney 2012 RdRp.

MNV RdRp = molecular target: T3, MNV RdRp (Norovirus, UniProt Q80J95); test: Fluorescent RdRp activity assay, MNV RdRp; type: biochemical, murine norovirus; conditions: 0.1–100 µM; read-out: IC50 against MNV RdRp
T3 construct: made in house
Description: The antiviral activity of the four compounds (11, 13, 42a and 54) were examined for inhibition of RNA polymerases from other viruses spanning three genera of the Caliciviridae family, including Norovirus (human norovirus and MNV), Lagovirus (rabbit haemorrhagic disease virus [RHDV]) and Sapovirus (human sapovirus). […] The protein sequence of the examined calicivirus polymerases has an identity range between 30.2–61.4%, and therefore the broad-spectrum activity of these compounds could be attributed to a common, highly-conserved binding pocket across the RdRps, as has been previously reported with broad-spectrum activity of other site-B binding NNIs[16]. Moreover, the ability of each compound to inhibit the different RdRps in a similar range could be further confirmation of targeting a well-conserved binding site of the Caliciviridae family.
Recombinant calicivirus RdRps (GenBank accession numbers) norovirus GII.Pe/GII.4 Sydney 2012 (KT239579), MNV GV CW1 (DQ285629), RHDV Czech V351 (KF594473.1), and SaV GI.1 Mc114 (AY237422) were expressed and purified as described previously[60],[61]. […]
Fluorescent RdRp activity assays were carried out as previously described[14],[62]. Briefly, RdRp activity was quantified by monitoring the formation of double-stranded RNA (dsRNA) from a single stranded homopolymeric template, poly(C) (Sigma Aldrich, St Louis, MO, USA), using the fluorescent dye PicoGreen (Life Technologies, Carlsbad, CA, USA). […] RdRps were incubated for 10 mins at 30 °C in the presence of the test compounds or the compound vehicle DMSO (0.5% vol/vol) before addition into the reaction mixture, which was then allowed to run 15 min at 30 °C then terminated with 10 mM EDTA, followed by PicoGreen staining and dsRNA quantitation. […] In cases where fluorescent enhancement was recorded for a compound instead of inhibition, a secondary gel-based polymerase activity assay was used as a counter-screen as described below, to exclude the possibility of RdRp activity enhancement (Supplementary Fig. S1). […] Antagonism was calculated using Compusyn software V1.0[59]. […]

[2] = molecular target: T2, human norovirus Sydney 2012 RdRp; test: Fluorescent de novo RdRp activity assay (PicoGreen, poly(C) template); type: biochemical
Experimental: The 62 compounds identified in silico were screened for inhibition of norovirus RdRp activity using an in vitro fluorescent, de novo RdRp assay. Compounds were tested at fixed concentrations of 10 µM and 100 µM, and compared to mock treated samples containing the vehicle only (0.5% DMSO [vol/vol]) (Fig. 4A,B). […] For certain compounds, significant insolubility was observed, coupled with either inherent fluorescence quenching (positive y-axis values on Fig. 4A,B) or enhancement of the fluorescence signal (negative y-axis values).
The newly synthesised compounds, including the re-prepared hit 13 and some synthesis intermediates (Table 1), were initially evaluated on norovirus Sydney 2012 RdRp activity in vitro using a quantitative fluorescent assay. Compounds were tested at a fixed concentration of 10 μM and compared to the relative activity of mock treated samples.
Recombinant calicivirus RdRps (GenBank accession numbers) norovirus GII.Pe/GII.4 Sydney 2012 (KT239579), MNV GV CW1 (DQ285629), RHDV Czech V351 (KF594473.1), and SaV GI.1 Mc114 (AY237422) were expressed and purified as described previously[60],[61]. RdRp resistance mutants were generated using the QuikChange site-directed mutagenesis kit (Agilent Technologies, Santa Clara, CA, USA) and confirmed by Sanger sequencing.
as §1

SMILES: O=C1NN(c2ccccc2)C(=O)/C1=C/c1ccc(-c2ccc(S(=O)(=O)Nc3ccccc3)cc2)o1 [Compound 54]
- IC50 (R419A norovirus RdRp): 10.2 µM
- combination index at 50% inhibition [1]: 1.6
- combination index at 75% inhibition [1]: 1.7
- combination index at 90% inhibition [1]: 1.8
- average combination index ([1]; average over 50%, 75% and 90% inhibition): 1.7
- IC50 (MNV RdRp): 12.1 µM
- IC50 [2]: 5.6 µM
